The results in this text go back to ChEMBL document CHEMBL1148031, “Rational design of inhibitors of VirA-VirG two-component signal transduction” (Bioorg Med Chem Lett, 2007).

The term IC50 denotes the concentration that gives 50% inhibition. A low value points to higher potency.

The structures appear in SMILES notation.

The test concerns Agrobacterium tumefaciens. Kind of test: Inhibition of acetosyringone-induced virB::lacZ expression in Agrobacterium tumefaciens A348/pSW209. It is filed as functional, organism-based.
With `COc1ccc(C=O)c(OC)c1`, the IC50 was above 200 µM.
The value for `O=Cc1ccccc1C(=O)O` was above 200 µM; that for `O=CC(=O)Oc1ccccc1` was 25 µM; that for `COc1cc(OC)c2c(c1O)C(=O)OC2O` (configuration not stated) was above 100 µM.
With `CCCCC(=O)c1ccccc1C=O` the figure was 20 µM; with `COc1cc(OC)c([N+](=O)[O-])c2c1C(O)OC2=O` (configuration not stated), above 200 µM; with `COc1cc(OC)c2c(c1N)C(=O)OC2O` (configuration not stated), above 200 µM.
As for `O=C1OC(O)c2ccccc21` (configuration not stated), the IC50 is 25 µM.
On to `COc1cc(OC)c(C(C)=O)c(C(C)=O)c1`, for which the IC50 was above 200 µM.
Compound `COc1ccc(N(O)C(=O)C=O)c(O)c1` registered an IC50 of 30 µM.
The compound `COc1ccc(N(OC)C(=O)C=O)c(O)c1` gave an IC50 below 1 µM.
With `CC(=O)c1ccccc1C=O` the figure was 25 µM; with `COc1cc(OC)c(C=O)c(C(=O)O)c1`, 8 µM.
With `COc1cc(CC(=O)O)c(C=O)c(OC)c1` the figure was above 200 µM.
The value for `COc1cc(C=O)c(C(C)=O)c(OC)c1` was 25 µM.
`CCOc1cc(OCC)c2c(c1)C(=O)OC2O` (configuration not stated) gave an IC50 of 8 µM.
The value for `O=CC(=O)Nc1ccccc1` was 35 µM.
For the compound `COc1cccc2c1C(=O)OC2O` (configuration not stated), the 50% inhibitory concentration (IC50) is above 200 µM.
The value for `O=CC(=O)c1ccccc1` [PHENYLGLYOXAL] was 40 µM; that for `O=CC(=O)N(O)c1ccccc1` was 25 µM.
`O=CCC(=O)N(O)c1ccccc1` displayed an IC50 above 400 µM.
The value for `COc1cc(OC)c(C(C)=O)c(C(=O)O)c1` was above 200 µM.
`CCCCC(=O)c1c(OC)cc(OC)cc1C(=O)O`: the IC50 is above 200 µM.
Turning to `CCCCC(=O)c1c(C=O)cc(OC)cc1OC`, the half-inhibitory concentration (IC50) is 10 µM.
`COc1cc(OC)c2c(c1NC(C)=O)C(=O)OC2O` (configuration not stated) came in with an IC50 above 200 µM.
With `COc1cc(OC)c(C=O)c(C(C)=O)c1` the figure was 25 µM.
The value for `COc1ccc2c(c1)C(=O)OC2O` (configuration not stated) was above 200 µM.
With `COc1ccccc1C(=O)C=O` the figure was 34 µM; with `COc1cc(C=O)cc(OC)c1`, above 200 µM; with `CCCCC(=O)c1cc(OC)cc(OC)c1C=O`, 10 µM.
Turning to `COc1ccc2c(c1)C(O)OC2=O` (configuration not stated), the midpoint of inhibition, the IC50, lay at 41 µM.
The value for `COc1cccc2c1C(O)OC2=O` (configuration not stated) was above 200 µM.
